This is an account of results in PubChem BioAssay (NCI).

Holding throughout (assay): NCI-60 cell line screen, 48 h
In assay [1] the test system is 786-0 renal.
In assay [2] the test system is PC-3 prostate.
In assay [3] the test system is HL-60(TB) leukemia.
The subject of assay [4] is A498 renal.
Assay [5] relates to SF-539 CNS.
For assay [6], the system named is SF-295 CNS.
Assay [7] concerns BT-549 breast.
The test system of assay [8] is SN12C renal.
The test system of assay [9] is SNB-19 CNS.
The subject of assay [10] is CCRF-CEM leukemia.
Assay [11] deals with UO-31 renal.

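Grown in 96-well plates, cells were treated for 48 hours with each compound at five concentrations. Insufficient inhibition: endpoint recorded as highest concentration tested. TGI: total growth inhibition.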

As for `CC(Cl)CC(=O)OCC1CCCN2CCCCC12` (configuration not stated), the TGI in [1], in assay [2], in [3], in assay [4], in assay [5] and in assay [6] was more than 100 µM throughout. The TGI in assay [7], in assay [8], in [9], in assay [10] and in [11] was more than 100 µM each time.

For `O=C(c1cc2c(c3ccccc13)NC1(CCCCC1)N=C2C(F)(F)F)C(F)(F)F`, the TGI in [1] came to 14.1 µM; in assay [2], 12.4 µM; in assay [3], 9.89 µM; in assay [4], 20.8 µM; in assay [5] it was 5.59 µM; in assay [6], 10.9 µM. For the same compound, the TGI stood at 15.8 µM in assay [7]; 13.2 µM in assay [8]; 18.7 µM in [9]; 13.1 µM in [10]; 11.8 µM in assay [11].

Take `COC(=O)C12OC3CO[Si](C(C)C)(C(C)C)O[Si](C(C)C)(C(C)C)OC3C1Oc1nc(=O)ccn12` (configuration not stated): the TGI in assay [1] was determined as 31.6 µM; in [2] it was 29.2 µM; in assay [3], 72.9 µM; in assay [4], 38.8 µM; in assay [5], 30.2 µM; in assay [6] it was 29.6 µM. Besides, the TGI was determined as 32.1 µM in assay [7]; 32 µM in assay [8]; 31.2 µM in assay [9]; 41 µM in assay [10]; 29.9 µM in assay [11].

Consider `CC1(C)N=C(C2CCCN2C(=O)OCc2ccccc2)OC1=O` (configuration not stated), for which the TGI in [1], in assay [2], in assay [3], in assay [4], in assay [5] and in assay [6] was more than 100 µM throughout. The TGI in [7], in assay [8], in assay [9], in assay [10] and in [11] was more than 100 µM in each case.

As to `CC(C)N(C(C)C)S(=O)(=O)C[C@]12CC[C@H](CC13OCC(CS(=O)(=O)c1ccccc1)O3)C2(C)C` (some centres not stated), the TGI in [1] is more than 100 µM; in [2] it was more than 100 µM; in assay [3] it was 61.2 µM; in assay [4], more than 100 µM; in [5], more than 100 µM; in assay [6], more than 83.8 µM. In addition, the TGI in [7], in [8], in [9], in assay [10] and in assay [11] was more than 100 µM in each case.

`O=C(N/N=C/c1ccccc1)c1cccc2nc3ccccc3nc12`: the TGI in assay [1] was more than 100 µM; in assay [2] it was more than 100 µM; in assay [3], more than 100 µM; in assay [4], more than 100 µM; in [5] it was more than 100 µM; in assay [6], more than 86.5 µM. For the same compound, the TGI in assay [7], in assay [8], in assay [9], in assay [10] and in [11] was more than 100 µM throughout.

As to `CCOC(=O)c1c(NC(=S)Nc2ccccc2)sc2c1CCOC2`, the TGI in assay [1], in assay [2], in assay [3], in [4], in assay [5] and in [6] was more than 100 µM throughout. Besides, the TGI in [7] was 58 µM; in [8], more than 100 µM; in assay [9], more than 100 µM; in assay [10], more than 100 µM; in [11], more than 100 µM.
